Reference: ChEMBL document CHEMBL1148072, “Ellagitannins and complex tannins from Quercus petraea bark” (J Nat Prod, 1994)

System: Blood
Assay: Astringency in human blood by heme-analysis relative to tannin
Format: functional

Row | SMILES | Activity
1 | O=C1OC[C@H]2OC(=O)c3cc(O)c(O)c(O)c3-c3c(O)c(O)c(O)c4c3C(=O)O[C@H]([C@@H]3OC(=O)c5c-4c(O)c(O)c(O)c5[C@@H]3c3c(O)cc(O)c4c3O[C@H](c3ccc(O)c(O)c3)[C@@H](O)C4)[C@H]2OC(=O)c2cc(O)c(O)c(O)c2-c2c1cc(O)c(O)c2O [ACUTISSIMIN A] | 0.28
2 | O=C1OC[C@H]2OC(=O)c3cc(O)c(O)c(O)c3-c3c(O)c(O)c(O)c4c3C(=O)O[C@H]([C@@H]3OC(=O)c5c-4c(O)c(O)c(O)c5[C@@H]3c3c(O)cc(O)c4c3O[C@H](c3cc(O)c(O)c(O)c3)[C@@H](O)C4)[C@H]2OC(=O)c2cc(O)c(O)c(O)c2-c2c1cc(O)c(O)c2O [EUGENIGRANDIN A] | 0.46
3 | O=C1OC[C@H]2OC(=O)c3cc(O)c(O)c(O)c3-c3c(O)c(O)c(O)c4c3C(=O)O[C@H]([C@@H]3OC(=O)c5c-4c(O)c(O)c(O)c5[C@@H]3c3c(O)cc4c(c3O)C[C@H](O)[C@@H](c3cc(O)c(O)c(O)c3)O4)[C@H]2OC(=O)c2cc(O)c(O)c(O)c2-c2c1cc(O)c(O)c2O [GUAJAVIN B] | 0.44
4 | O=C1OC[C@H]2OC(O)[C@@H]3OC(=O)c4cc(O)c(O)c(O)c4-c4c(cc(O)c(O)c4O)C(=O)O[C@H]3[C@@H]2OC(=O)c2cc(O)c(O)c(O)c2-c2c1cc(O)c(O)c2O (stereo partly specified) [PEDUNCULAGIN] | 0.2
5 | O=C1OCC2OC(=O)c3cc(O)c(O)c(O)c3-c3c(O)c(O)c(O)c4c3C(=O)OC(C2OC(=O)c2cc(O)c(O)c(O)c2-c2c1cc(O)c(O)c2O)C1OC(=O)c2c-4c(O)c(O)c(O)c2C1O (stereo unspecified) [VESCALAGIN] | 0.24

System: Caenorhabditis elegans
Assay: Anthelmintic activity against Caenorhabditis elegans
Format: functional, organism-based

Row | SMILES | IC50 [ppm]
6 | COC(=O)Nc1nc2cc(C(=O)c3ccccc3)ccc2[nH]1 [MEBENDAZOLE] | 10
